Reference: patent US12064402B2, “Binge behavior regulators” (Clearmind Medicine Inc., priority 2014, dated 2024)

What was measured:
[1] = amount of alcoholic beverage drunk in a binge session after the drinking regulator; type: in vivo; details: 70 mg of drinking regulator; for amount of beer drunk in a binge session: reduced from 1.5 liter; for amount of wine drunk in a binge session: reduced from 1000 ml
Method: In exemplary embodiments, administration of the amount of 70 mg of drinking regulator selected form Compound 1 or Compound 2 described herein reduced the amount of beer drunk in a binge session from 1.5 liter to 0.5 liter, or the amount of wine drunk in a binge session from 1000 ml to 250 ml.

[2] = over six months, when used with counseling; cited from earlier work

| Structure (SMILES) | amount of beer drunk in a binge session [1] | amount of wine drunk in a binge session [1] | cut drinking [2] |
| --- | --- | --- | --- |
| COc1ccc2c(c1)CC(N)C2 (centres unmarked) [Compound 1, 5-methoxy-2-aminoindan] | 0.5 L | 250 mL | – |
| COc1cc2c(cc1OC)CC(N)C2 [Compound 2, 5,6-dimethoxy-2-aminoindan] | 0.5 L | 250 mL | – |
| C=C1CC[C@@]2(O)[C@H]3Cc4ccc(O)c5c4[C@@]2(CCN3CC2CC2)[C@H]1O5 [Nalmefene] | – | – | 61% |
